Experimental data: patent US10100372B2, “Recombinant RSV reporter virus” (priority 2014, dated 2018)
Like-named read-outs stand apart in the source and are kept apart here. *1 amine or outer side, *2 acyl side, *3 side chain or, on linkers, in order; H or OH if unused. Where a SMILES comes first, the peptide text is derived from it. Bridges are numbered along the chain shown (N, C = ends). Roman numbers before positions name the chains, in order. [ ]: non-standard residue; d: D form. Actinocin(9to1) = Cc1c2oc3c(C)ccc(C(=O)[*:1])c3nc-2c(C(=O)[*:2])c(N)c1=O; NMeV = CN[C@H](C(=O)O)C(C)C; Sar = CNCC(=O)O

Legend:
[1] = tested on: recRSV A2-L19FD489E-fireSMASh; experiment: microbe, parasite or virus in culture; assay type: cell-based, Respiratory Syncytial Virus; conditions: 384-well, four replicate screens, mean ± SD, BEAS-2B co-infection; for inhibition at 5 µM: human respiratory syncytial virus, read-out: % Inhibition (anti-RSV)
[2] = tested on: recIAV WSN-NanoLuc; experiment: microbe, parasite or virus in culture; assay type: cell-based, influenza virus IAV/WSN/33 (H1N1); conditions: for inhibition at 5 µM: unidentified influenza virus, WSN, BEAS-2B, read-out: % Inhibition (anti-IAV)
[3] = tested on: recRSV A2-L19F-renilla; experiment: microbe, parasite or virus in culture; assay type: cell-based; conditions: BEAS-2B; for EC50: read-out: EC50 RSV A2-L19F-renilla
[4] = tested on: recIAV WSN-NanoLuc; conditions: for SI [CC50/EC50] IAV: SIIAV
[5] = tested on: recRSV A2-L19FD489E-fireSMASh; conditions: for SI [CC50/EC50] RSV: SIRSV
[6] = in vitro; conditions: human
[7] = tested on: recIAV WSN-NanoLuc; experiment: microbe, parasite or virus in culture; conditions: Influenza A virus, BEAS-2B, read-out: EC50 IAV WSN-nanoLuc
[8] = tested on: recRSV A2-L19FD489E-fireSMASh; experiment: microbe, parasite or virus in culture; conditions: human respiratory syncytial virus, BEAS-2B, read-out: EC50 RSV A2-L19FD489E-fireSMASh
[9] = tested on: BEAS-2B cells; conditions: highest concentration 10 μM, tox = less than 50% cell viability after 44 hours at ≤10 μM
[10] = 95% confidence interval in parentheses, inactive = less than 50% reduction of mean reporter signal
[11] = BEAS-2B, 95% confidence interval in parentheses, inactive = less than 50% reduction of mean reporter signal
[12] = human respiratory syncytial virus, 95% confidence interval in parentheses, inactive = less than 50% reduction of mean reporter signal

Compound: Cc1c2oc3c(C)ccc(C(=O)N[C@@H]4C(=O)N[C@H](C(C)C)C(=O)N5CCC[C@H]5C(=O)N(C)CC(=O)N(C)[C@@H](C(C)C)C(=O)O[C@@H]4C)c3nc-2c(C(=O)N[C@@H]2C(=O)N[C@H](C(C)C)C(=O)N3CCC[C@H]3C(=O)N(C)CC(=O)N(C)[C@@H](C(C)C)C(=O)O[C@@H]2C)c(N)c1=O [Actinomycin D] (I: T[dV]P[Sar][NMeV] / II: T[dV]P[Sar][NMeV]; ester I:1-I:C, II:1-II:C; linker I:N-II:N via Actinocin(9to1))
- % Inhibition (anti-RSV) ([1]; 5 μM): 52 ± 9.6%
- % Inhibition (anti-IAV) ([2]; 5 μM): 104 ± 1.5%

Compound: Nc1nc(N)c2nc(CNc3ccc(C(=O)N[C@@H](CCC(=O)O)C(=O)O)cc3)cnc2n1 [Aminopterin]
- EC50 ([3]; human respiratory syncytial virus): 50 nM
- SI [CC50/EC50] IAV [4]: SIIAV 111
- SI [CC50/EC50] RSV [5]: SIRSV 143
- CC50 [6]: 10 µM
- EC50 [7]: 90 nM
- EC50 [8]: 70 nM

Compound: CC(=O)OC[C@H]1O[C@@H]([S-])[C@H](OC(C)=O)[C@@H](OC(C)=O)[C@@H]1OC(C)=O.CCP(CC)CC.[Au+] [Auranofin]
- CC50 (PrestoBlue cell viability) [9]: tox^d

Compound: COc1cc2nc(N3CCCN(C)CC3)nc(NC3CCN(Cc4ccccc4)CC3)c2cc1OC [BIX 01294]
- EC50 RSV A2-L19F-renilla [3, 10]: inactive^e
- EC50 IAV WSN-nanoLuc [4, 11]: inactive^e
- EC50 RSV A2-L19FD489E-fireSMASh [5, 11]: inactive^e
- CC50 [6]: > 10 µM

Compound: Cc1c(-c2ccc(-c3ccccc3F)cc2)nc2ccc(F)cc2c1C(=O)O [Brequinar]
- EC50 [3, 12]: 1800 nM
- SI [CC50/EC50] IAV [4]: SIIAV >3.8
- SI [CC50/EC50] RSV [5]: SIRSV >6.3
- CC50 [6]: > 10 µM
- EC50 [7]: 2600 nM
- EC50 [8]: 1600 nM

Compound: CNc1ccc2oc(C[C@H]3O[C@@]4(CC[C@H]3C)O[C@H]([C@H](C)C(=O)c3ccc[nH]3)[C@H](C)C[C@H]4C)nc2c1C(=O)O [Calcimycin]
- CC50 (PrestoBlue cell viability) [9]: tox^d

Compound: CC[C@H]1CN2CCc3cc(OC)c(OC)cc3[C@@H]2C[C@@H]1C[C@H]1NCCc2cc(OC)c(OC)cc21 [Emetine]
- CC50 (PrestoBlue cell viability) [9]: tox^d

Compound: COc1cccc2c1C(=O)c1c(O)c3c(c(O)c1C2=O)C[C@@](O)(C(=O)CO)C[C@@H]3O[C@H]1C[C@H](N)[C@@H](O)[C@H](C)O1 [Epirubicin]
- inhibition at 5 µM [1]: 62 ± 6.3%
- inhibition at 5 µM [2]: 75 ± 3.1%

Compound: COc1cc([C@@H]2c3cc4c(cc3[C@@H](O[C@@H]3O[C@@H]5CO[C@@H](C)O[C@H]5[C@H](O)[C@H]3O)[C@H]3COC(=O)[C@H]23)OCO4)cc(OC)c1O [Etoposide]
- inhibition at 5 µM [1]: 80 ± 6.6%
- inhibition at 5 µM [2]: 56 ± 5.6%

Compound: CC1=C(/C=C/C(C)=C/C=C/C(C)=C/C(=O)Nc2ccc(O)cc2)C(C)(C)CCC1 [Fenretinide]
- EC50 [3, 12]: 4800 nM
- EC50 IAV WSN-nanoLuc [4, 11]: inactive^e
- effect on IAV reporter strain ([4]; highest concentration tested): unaffected
- SI [CC50/EC50] RSV [5]: SIRSV >2.8
- selectivity for RSV reporter ([5]; dose-response counterscreen): selectively inhibited RSV
- CC50 [6]: > 10 µM
- EC50 [8]: 3600 nM

Compound: Nc1ccn([C@@H]2O[C@H](CO)[C@@H](O)C2(F)F)c(=O)n1 [Gemcitabine]
- EC50 [3, 12]: 50 nM
- SI [CC50/EC50] IAV [4]: SIIAV >100
- SI [CC50/EC50] RSV [5]: SIRSV >111
- CC50 [6]: > 10 µM
- EC50 [7]: 100 nM
- EC50 [8]: 90 nM

Compound: COC(=O)C[C@](O)(CCCC(C)(C)O)C(=O)O[C@@H]1C(OC)=C[C@]23CCCN2CCc2cc4c(cc2[C@H]13)OCO4 [Homoharringtonine]
- inhibition at 5 µM [1]: 98 ± 0.5%
- inhibition at 5 µM [2]: 90 ± 2.6%

Compound: CC(=O)[C@]1(O)Cc2c(O)c3c(c(O)c2[C@@H](O[C@H]2C[C@H](N)[C@H](O)[C@H](C)O2)C1)C(=O)c1ccccc1C3=O [Idarubicin]
- inhibition at 5 µM [1]: 95 ± 1.3%
- inhibition at 5 µM [2]: 97 ± 1%
- CC50 (PrestoBlue cell viability) [9]: tox^d

Compound: Nc1nc2c(c(=O)[nH]1)C[C@@H](CCc1ccc(C(=O)N[C@@H](CCC(=O)O)C(=O)O)cc1)CN2 [Lometrexol]
- CC50 (PrestoBlue cell viability) [9]: tox^d

Compound: CN(Cc1cnc2nc(N)nc(N)c2n1)c1ccc(C(=O)N[C@@H](CCC(=O)O)C(=O)O)cc1 [Methotrexate]
- inhibition at 5 µM [1]: 99 ± 0.5%
- inhibition at 5 µM [2]: 100 ± 0.6%

Compound: CCOC(=O)C1=C(C)NC(C)=C(C(=O)OC)C1c1cccc([N+](=O)[O-])c1 (stereo not shown) [Nitrendipine]
- EC50 RSV A2-L19F-renilla [3, 10]: inactive^e
- EC50 IAV WSN-nanoLuc [4, 11]: inactive^e
- EC50 RSV A2-L19FD489E-fireSMASh [5, 11]: inactive^e
- CC50 [6]: > 10 µM

Compound: Cn1c(=O)c(-c2c(Cl)cccc2Cl)cc2cnc(Nc3ccc(N4CCOCC4)cc3)nc21 [PD173952]
- CC50 (PrestoBlue cell viability) [9]: tox^d

Compound: CCN(CC)CCOc1ccc(Nc2ncc3cc(-c4c(Cl)cccc4Cl)c(=O)n(C)c3n2)cc1 [PD-166285]
- CC50 (PrestoBlue cell viability) [9]: tox^d

Compound: c1cnc2c(c1)ccc1cccnc12 [Phenanthroline]
- CC50 [6]: 2.4 µM

Compound: Cc1nc2ccc(CN(C)c3ccc(C(=O)N[C@@H](CCC(=O)O)C(=O)O)s3)cc2c(=O)[nH]1 [Raltitrexed]
- inhibition at 5 µM [1]: 91 ± 1%
- inhibition at 5 µM [2]: 60 ± 6.5%

Compound: NC(=O)c1ncn([C@@H]2O[C@H](CO)[C@@H](O)[C@H]2O)n1 [Ribavirin]
- EC50 [3, 12]: 2900 nM
- SI [CC50/EC50] IAV [4]: SIIAV >2.2
- SI [CC50/EC50] RSV [5]: SIRSV >3.9
- CC50 [6]: > 10 µM
- EC50 [7]: 4500 nM
- EC50 [8]: 2600 nM

Compound: CN(CCOc1ccc(CC2SC(=O)NC2=O)cc1)c1ccccn1 (stereo not shown) [Rosiglitazone]
- inhibition at 5 µM [1]: 85 ± 5.8%
- inhibition at 5 µM [2]: 35 ± 5%

Compound: C[n+]1cc2c3c(ccc2c2ccc4cc5c(cc4c21)OCO5)OCO3 [Sanguinarine]
- CC50 (PrestoBlue cell viability) [9]: tox^d

Compound: CCN(CC)CCNC(=O)c1c(C)[nH]c(/C=C2\C(=O)Nc3ccc(F)cc32)c1C [Sunitinib]
- CC50 (PrestoBlue cell viability) [9]: tox^d

Compound: Cn1nnc2c(C(N)=O)ncn2c1=O [Temozolomide]
- inhibition at 5 µM [1]: 96 ± 1.3%
- inhibition at 5 µM [2]: 55 ± 3.2%

Compound: Nc1nc(N)c2nc(-c3ccccc3)c(N)nc2n1 [Triamterene]
- EC50 RSV A2-L19F-renilla [3, 10]: inactive^e
- EC50 IAV WSN-nanoLuc [4, 11]: inactive^e
- EC50 RSV A2-L19FD489E-fireSMASh [5, 11]: inactive^e
- CC50 [6]: > 10 µM

Compound: CC(C)[C@]12O[C@H]1[C@@H]1O[C@]13[C@]1(O[C@H]1C[C@H]1C4=C(CC[C@@]13C)C(=O)OC4)[C@@H]2O [Triptolide]
- inhibition at 5 µM [1]: 1.5 ± 21%
- inhibition at 5 µM [2]: 103 ± 1.2%
- EC50 [3, 12]: 600 nM
- SI (CC50/EC50) value at dose-response testing ([4]; virus not given): below two
- CC50 [6]: 0.3 µM
- EC50 [7]: 150 nM
- EC50 [8]: 400 nM

Compound: CC[C@]1(O)C[C@H]2CN(CCc3c([nH]c4ccccc34)[C@@](C(=O)OC)(c3cc4c(cc3OC)N(C=O)[C@H]3[C@@](O)(C(=O)OC)[C@H](OC(C)=O)[C@]5(CC)C=CCN6CC[C@]43[C@@H]65)C2)C1 [Vincristine]
- inhibition at 5 µM [1]: 79 ± 6.9%
- inhibition at 5 µM [2]: 50 ± 2.9%

Compound: CC(=O)N[C@H]1[C@H]([C@H](O)[C@H](O)CO)OC(C(=O)O)=C[C@@H]1N=C(N)N [Zanamivir]
- EC50 RSV A2-L19F-renilla [3, 10]: Inactive
- SI [CC50/EC50] IAV [4]: SI^IAV >500
- selectivity for IAV reporter ([4]; dose-response counterscreen): selectively inhibited the IAV reporter
- EC50 RSV A2-L19FD489E-fireSMASh [5, 11]: Inactive
- CC50 [6]: > 10 µM
- EC50 [7]: 20 nM

Compound: ET-18-OCH3
- EC50 RSV A2-L19F-renilla [3, 10]: inactive^e
- EC50 IAV WSN-nanoLuc [4, 11]: inactive^e
- EC50 RSV A2-L19FD489E-fireSMASh [5, 11]: inactive^e
- CC50 ([9]; read-out: CC50 (PrestoBlue cell viability)): > 10 µM

Compound: Stattic
- EC50 [3, 10]: 15100 nM
- SI [CC50/EC50] IAV [4]: SIIAV 3
- EC50 ([4]; read-out: EC50 IAV WSN-nanoLuc, BEAS-2B, 95% confidence interval in parentheses, inactive = less than 50% reduction of mean reporter signal): 3.3 µM
- EC50 ([5]; read-out: EC50 RSV A2-L19FD489E-fireSMASh, BEAS-2B, 95% confidence interval in parentheses, inactive = less than 50% reduction of mean reporter signal): 5.9 µM
